Target: T1, histamine H3 receptor (Homo sapiens, UniProt Q9Y5N1)
T1 construct: expressed in transfected cells; membranes
Test: [3H]-N-methylhistamine binding
Settings: membranes from histamine H3 receptor-expressing SK-N-MC cells; 0.8 nM [3H]-N-methylhistamine; 45 minutes at 25° C.
Procedure: 1(A) Transfection of Cells with Human Histamine Receptor
A 10 cm tissue culture dish with a confluent monolayer of SK-N-MC cells was split two days prior to transfection. Using sterile technique the media was removed and the cells were detached from the dish by the addition of trypsin. One fifth of the cells were then placed onto a new 10 cm dish. Cells were grown in a 37° C. incubator with 5% CO2 in Minimal Essential Media Eagle with 10% Fetal Bovine Serum. After two days cells were approximately 80% confluent. These were removed from the dish with trypsin and pelleted in a clinical centrifuge. […] One μg supercoiled H3 receptor cDNA was added to the cells and mixed. The voltage for the electroporation was set at 0.25 kV, the capacitance is set at 960 μF.
After electroporation the cells were diluted into 10 mL complete media and plated onto four 10 cm dishes. Due to the variability in the efficiency of electroporation, four different concentrations of cells were plated. The ratios used were: 1:20, 1:10, and 1:5, with the remainder of the cells being added to the fourth dish. The cells were allowed to recover for 24 hours before adding the selection media (complete media with 600 μg/ml G418). After 10 days dishes were analyzed for surviving colonies of cells. Dishes with well-isolated colonies were used. Cells from individual colonies were isolated and tested. SK-N-MC cells were used because they give efficient coupling for inhibition of adenylate cyclase. The clones that gave the most robust inhibition of adenylate cyclase in response to histamine were used for further study.
1(B) [3H]-N-methylhistamine Binding
Cell pellets from histamine H3 receptor-expressing SK-N-MC cells were homogenized in 20 mM TrisHCl/0.5 mM EDTA. Supernatants from a 800 g spin were collected, reccentrifuged at 30,000 g for 30 minutes. Pellets were rehomogenized in 50 mM Tris/5 mM EDTA (pH 7.4). Membranes were incubated with 0.8 nM [^3H]-N-methylhistamine plus/minus test compounds for 45 minutes at 25° C. and harvested by rapid filtration over GF/C glass fiber filters (pretreated with 0.3% polyethylenimine) followed by four washes with ice cold buffer. Filters were dried, added to 4 mL scintillation cocktail and then counted on a liquid scintillation counter. Non-specific binding was defined with 10 μM histamine.

T1 sequence (Q9Y5N1 whole entry): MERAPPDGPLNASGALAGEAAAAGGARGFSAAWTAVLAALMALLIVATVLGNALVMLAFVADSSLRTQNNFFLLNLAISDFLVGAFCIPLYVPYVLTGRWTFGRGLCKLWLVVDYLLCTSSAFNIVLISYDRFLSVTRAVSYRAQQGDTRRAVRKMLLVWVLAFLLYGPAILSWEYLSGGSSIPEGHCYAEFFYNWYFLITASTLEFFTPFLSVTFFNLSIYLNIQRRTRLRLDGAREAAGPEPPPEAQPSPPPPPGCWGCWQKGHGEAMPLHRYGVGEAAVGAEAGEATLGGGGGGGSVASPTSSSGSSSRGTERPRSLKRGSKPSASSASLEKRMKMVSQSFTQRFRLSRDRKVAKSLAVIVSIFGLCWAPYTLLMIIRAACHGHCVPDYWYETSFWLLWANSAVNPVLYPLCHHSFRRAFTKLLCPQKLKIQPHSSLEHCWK

**Q.** Which Ki does the source give for `CN(C)CCCOc1ccc(-c2cc3ccccc3n2S(C)(=O)=O)cc1` [Example 7, 2-[4-[3-Dimethylaminopropoxy]phenyl]-1-(methylsulfonyl)-1H-indole] here?
**A.** The Ki was 120 nM.

**Q.** Which Ki does the source give for `CCN(CC)CCOc1ccc(-c2cc3ccccc3[nH]2)cc1` [Example 11, 2-[4-[2-Diethylaminoethoxy]phenyl]-1H-indole] here?
**A.** Its Ki is 523 nM.

**Q.** For `CN1CCC(Oc2ccc(-c3cc4ccccc4[nH]3)cc2)CC1` [Example 6, 2-[4-[1-(methyl)-4-piperidinyl]oxyphenyl] 1H-indole], which Ki is on record?
**A.** The Ki was 390 nM.

**Q.** How did the Ki turn out when `CN1CCCC1CCOc1ccc(-c2cc3ccccc3[nH]2)cc1` (centres unmarked) [Example 4, 2-[4-[2-[1-(methyl)-2-pyrrolidinyl]ethoxy]phenyl)-1H-indole] was run?
**A.** The Ki was 100 nM.

**Q.** For `CS(=O)(=O)n1c(-c2ccc(OCc3ccncc3)cc2)cc2ccccc21` [Example 9, 2-[4-[4-Pyridinyl]methoxyphenyl]-1-(methylsulfonyl)-1H-indole], which Ki is on record?
**A.** The Ki was 5000 nM.

**Q.** Which Ki does the source give for `CN1CCN(CCCOc2ccc(-c3cc4cc(Cl)ccc4n3S(C)(=O)=O)cc2)CC1` [Example 17] here?
**A.** Its Ki is 3000 nM.

**Q.** With `CN(C)CCCOc1ccc(-c2cc3ccccc3[nH]2)cc1` [Example 8, 2-[4-[3-Dimethylaminopropoxy]phenyl] 1H-indole] as the compound, how does the Ki read?
**A.** Its Ki is 500 nM.

**Q.** For `CN1CCN(CCCOc2ccc(-c3cc4ccccc4[nH]3)cc2)CC1` [Example 16, 2-(4-(3-(4-Methylpiperazino)propoxy)phenyl)indole], which Ki is on record?
**A.** Its Ki is 2000 nM.

**Q.** How did the Ki turn out when `CCN(CC)CCOc1ccc(-c2cc3ccccc3n2S(C)(=O)=O)cc1` [Example 10, 2-[4-[2-Diethylaminoethoxy]phenyl]-1-(methylsulfonyl)-1H-indole] was run?
**A.** The Ki was 369 nM.

**Q.** With `CS(=O)(=O)n1c(-c2ccc(OCCCN3CCCCC3)cc2)cc2ccccc21` [Example 1, 2-[4-[3-Piperidinopropoxy]phenyl)-1-(methylsulfonyl)-1H-indole] as the compound, how does the Ki read?
**A.** Its Ki is 7 nM.

**Q.** For `CN1CCC(Oc2ccc(-c3cc4ccccc4n3S(C)(=O)=O)cc2)CC1` [Example 5, 2-[4-[1-(methyl)-4-piperidinyl]oxyphenyl]-1-(methylsulfonyl)-1H-indole], which Ki is on record?
**A.** The Ki was 107 nM.

**Q.** With `CS(=O)(=O)n1c(-c2cccc(OCCCN3CCCCC3)c2)cc2ccccc21` [Example 15, 2-[3-[3-Piperidinopropoxy]phenyl)-1-(methylsulfonyl)-1H-indole] as the compound, how does the Ki read?
**A.** The Ki was 33 nM.

**Q.** `CN1CCCC1CCOc1ccc(-c2cc3ccccc3n2S(C)(=O)=O)cc1` (centres unmarked) [Example 3, 2-[4-[2-[1-(methyl)-2-pyrrolidinyl]ethoxy]phenyl)-1-(methylsulfonyl)-1H-indole] was tested. Which Ki did it give?
**A.** The Ki was 77 nM.

**Q.** `c1ccc2[nH]c(-c3ccc(OCCCN4CCCCC4)cc3)cc2c1` [Example 2, 2-[4-(3-Piperidinopropoxy]phenyl)-1H-indole] was tested. Which Ki did it give?
**A.** Its Ki is 48 nM.

From US6872834B2, “Phenyl-substituted indoles and indazoles” (Ortho-McNeil Pharmaceutical, Inc., priority 2000, dated 2005)
